{
  "source": "patent US20230218631A1",
  "about": "(priority 2020, published 2023)",
  "system": "EHMT2/G9A, H3K9me2",
  "key": {"[1]": {"conditions": "4-week CIE vs Air, same animals, FIG. 1C"}},
  "data": [
    {"smiles": "CCO", "note": "[ethanol]", "values": [
      {"measurement": "EHMT2/G9A in dorsal striatum", "setting": "[1]", "result": "no changes"},
      {"measurement": "H3K9me2 in dorsal striatum", "setting": "[1]", "result": "no changes"},
      {"measurement": "reduction of H3K9me2 levels in NAc", "setting": "4-week CIE vs Air, FIG. 1B", "result": "~40", "unit": "%"},
      {"measurement": "total histone H3 protein in NAc", "setting": "4-week CIE vs Air, FIG. 1B", "result": "no changes"},
      {"measurement": "reduction in NAc EHMT2/G9A protein levels", "setting": "4 weeks CIE vs Air, immunoblot, FIG. 1B", "result": "> 30", "unit": "%"}
    ]}
  ]
}
